Laboratory results as given in patent US12448395B2 (BRISTOL-MYERS SQUIBB COMPANY, priority 2019, dated 2025).
Counter-ions that a name gives are not always drawn.

What was measured:
Format in all cases: cell-based
human TLR8 = target: T1, human TLR8 (Homo sapiens, UniProt Q9NR97); assay: TLR8 inhibition reporter assay (HEK-Blue SEAP, R848 stimulation); details: HEK-Blue cells overexpressing human TLR8, R848 15.9 μM
T1 sequence (Q9NR97 27-1041): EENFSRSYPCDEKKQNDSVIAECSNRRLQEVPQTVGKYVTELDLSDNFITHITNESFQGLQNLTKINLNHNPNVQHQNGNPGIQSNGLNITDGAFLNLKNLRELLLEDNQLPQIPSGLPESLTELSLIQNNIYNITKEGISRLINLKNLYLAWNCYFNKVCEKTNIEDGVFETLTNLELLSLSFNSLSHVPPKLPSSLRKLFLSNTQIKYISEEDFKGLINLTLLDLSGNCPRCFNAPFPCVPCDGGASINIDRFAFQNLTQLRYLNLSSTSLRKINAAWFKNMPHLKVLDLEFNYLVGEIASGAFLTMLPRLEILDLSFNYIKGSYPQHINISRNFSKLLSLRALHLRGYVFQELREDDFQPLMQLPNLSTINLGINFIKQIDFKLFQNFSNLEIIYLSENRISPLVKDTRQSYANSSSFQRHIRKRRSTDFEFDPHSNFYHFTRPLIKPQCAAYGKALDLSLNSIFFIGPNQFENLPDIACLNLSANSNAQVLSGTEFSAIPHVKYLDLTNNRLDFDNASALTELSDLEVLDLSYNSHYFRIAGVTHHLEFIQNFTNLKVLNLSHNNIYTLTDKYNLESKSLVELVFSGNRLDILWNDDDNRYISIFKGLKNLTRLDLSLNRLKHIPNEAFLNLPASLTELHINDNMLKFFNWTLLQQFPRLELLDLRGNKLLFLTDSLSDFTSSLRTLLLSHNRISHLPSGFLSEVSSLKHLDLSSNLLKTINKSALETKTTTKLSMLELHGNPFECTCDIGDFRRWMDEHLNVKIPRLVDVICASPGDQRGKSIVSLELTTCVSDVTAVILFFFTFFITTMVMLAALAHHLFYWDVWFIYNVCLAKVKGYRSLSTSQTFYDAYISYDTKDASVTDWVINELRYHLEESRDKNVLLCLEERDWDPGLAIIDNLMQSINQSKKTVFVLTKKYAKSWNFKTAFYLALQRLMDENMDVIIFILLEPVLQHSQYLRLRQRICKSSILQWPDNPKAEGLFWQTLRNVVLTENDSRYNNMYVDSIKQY
Description: (§1) TLR7/8/9 Inhibition Reporter Assays
(§2) HEK-Blue™-cells (Invivogen) overexpressing human TLR7, TLR8 or TLR9 receptors were used for screening inhibitors of these receptors using an inducible SEAP (secreted embryonic alkaline phosphatase) reporter gene under the control of the IFN-β minimal promoter fused to five NF-κB and AP-1-binding sites. Briefly, cells are seeded into Greiner 384 well plates (15000 cells per well for TLR7, 20,000 for TLR8 and 25,000 for TLR9) and then treated with test compounds in DMSO to yield a final dose response concentration range of 0.05 nM-50 μM. After a 30 minute compound pre-treatment at room temperature, the cells are then stimulated with a TLR7 ligand (gardiquimod at a final concentration of 7.5 μM), TLR8 ligand (R848 at a final concentration of 15.9 μM) or TLR9 ligand (ODN2006 at a final concentration of 5 nM) to activate NF-κB and AP-1 which induce the production of SEAP. After a 22 hour incubation at 37° C., 5% CO2, SEAP levels are determined with the addition of HEK-Blue™ Detection reagent (Invivogen), a cell culture medium that allows for detection of SEAP, according to manufacturer's specifications. The percent inhibition is determined as the % reduction in the HEK-Blue signal present in wells treated with agonist plus DMSO alone compared to wells treated with a known inhibitor.

human TLR7 = target: T2, human TLR7 (Homo sapiens, UniProt Q9NYK1); assay: TLR7 inhibition reporter assay (HEK-Blue SEAP, gardiquimod stimulation); details: HEK-Blue cells overexpressing human TLR7, gardiquimod 7.5 μM
T2 sequence (Q9NYK1 27-1049): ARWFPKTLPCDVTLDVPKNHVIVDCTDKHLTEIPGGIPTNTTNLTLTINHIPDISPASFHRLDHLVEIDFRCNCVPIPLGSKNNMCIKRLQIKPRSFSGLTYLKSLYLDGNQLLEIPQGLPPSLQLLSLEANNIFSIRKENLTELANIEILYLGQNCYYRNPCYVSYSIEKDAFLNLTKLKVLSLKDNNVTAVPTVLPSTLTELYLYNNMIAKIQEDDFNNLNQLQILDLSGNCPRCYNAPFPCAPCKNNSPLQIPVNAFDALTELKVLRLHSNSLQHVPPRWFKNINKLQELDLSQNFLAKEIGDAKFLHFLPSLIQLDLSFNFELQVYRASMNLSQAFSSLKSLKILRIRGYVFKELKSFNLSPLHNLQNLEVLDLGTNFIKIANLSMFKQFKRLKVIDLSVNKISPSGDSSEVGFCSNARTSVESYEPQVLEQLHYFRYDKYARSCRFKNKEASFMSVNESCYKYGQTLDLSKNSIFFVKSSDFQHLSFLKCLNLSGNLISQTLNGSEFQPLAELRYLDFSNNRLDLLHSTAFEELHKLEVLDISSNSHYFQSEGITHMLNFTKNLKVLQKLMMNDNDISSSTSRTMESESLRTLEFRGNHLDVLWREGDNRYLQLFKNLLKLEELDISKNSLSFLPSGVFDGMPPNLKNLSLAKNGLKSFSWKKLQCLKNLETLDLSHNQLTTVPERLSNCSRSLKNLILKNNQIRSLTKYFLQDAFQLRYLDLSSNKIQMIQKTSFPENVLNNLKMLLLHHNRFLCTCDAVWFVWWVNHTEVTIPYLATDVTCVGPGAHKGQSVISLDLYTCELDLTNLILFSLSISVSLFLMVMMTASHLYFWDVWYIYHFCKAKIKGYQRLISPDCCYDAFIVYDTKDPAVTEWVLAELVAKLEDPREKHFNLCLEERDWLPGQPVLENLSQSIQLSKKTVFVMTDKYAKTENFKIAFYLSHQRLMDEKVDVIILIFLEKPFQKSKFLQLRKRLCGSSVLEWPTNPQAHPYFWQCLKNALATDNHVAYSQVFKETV
Description: as §1, §2

human TLR9 = target: T3, human TLR9 (Homo sapiens, UniProt Q9NR96); assay: TLR9 inhibition reporter assay (HEK-Blue SEAP, ODN2006 stimulation); details: HEK-Blue cells overexpressing human TLR9, ODN2006 5 nM
T3 sequence (Q9NR96 26-1032): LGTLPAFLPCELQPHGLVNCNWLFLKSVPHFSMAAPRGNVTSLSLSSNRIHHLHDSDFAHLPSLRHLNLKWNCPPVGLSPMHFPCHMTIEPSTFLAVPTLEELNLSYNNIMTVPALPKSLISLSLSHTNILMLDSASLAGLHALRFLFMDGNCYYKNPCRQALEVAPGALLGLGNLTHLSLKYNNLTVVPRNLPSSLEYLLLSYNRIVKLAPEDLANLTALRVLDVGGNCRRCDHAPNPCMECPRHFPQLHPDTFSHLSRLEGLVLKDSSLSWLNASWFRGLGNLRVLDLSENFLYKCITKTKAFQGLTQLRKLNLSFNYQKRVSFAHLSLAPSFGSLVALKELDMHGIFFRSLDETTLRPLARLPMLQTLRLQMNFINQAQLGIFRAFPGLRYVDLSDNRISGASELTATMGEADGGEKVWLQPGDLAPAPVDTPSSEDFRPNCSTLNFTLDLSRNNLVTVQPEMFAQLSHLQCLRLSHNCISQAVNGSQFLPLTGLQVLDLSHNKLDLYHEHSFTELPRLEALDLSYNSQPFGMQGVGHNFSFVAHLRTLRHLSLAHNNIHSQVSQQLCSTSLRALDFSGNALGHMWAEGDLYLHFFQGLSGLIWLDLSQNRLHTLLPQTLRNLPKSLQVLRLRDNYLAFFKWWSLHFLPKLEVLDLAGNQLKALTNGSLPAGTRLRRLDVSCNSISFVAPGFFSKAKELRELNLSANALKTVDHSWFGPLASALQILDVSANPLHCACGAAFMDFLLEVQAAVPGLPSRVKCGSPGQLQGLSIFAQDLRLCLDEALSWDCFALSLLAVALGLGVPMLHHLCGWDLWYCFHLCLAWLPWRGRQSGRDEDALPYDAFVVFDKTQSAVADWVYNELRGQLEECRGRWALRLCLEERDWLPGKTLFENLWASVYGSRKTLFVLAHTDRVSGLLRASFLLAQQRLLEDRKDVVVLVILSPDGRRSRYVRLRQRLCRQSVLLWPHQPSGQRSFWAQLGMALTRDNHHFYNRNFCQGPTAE
In short: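 Dose–response from 0.05 nM to 50 μM was run in HEK-Blue human TLR7, TLR8 and TLR9 reporter cells. After 30 min at room temperature with compound, ligand was added (TLR7 gardiquimod 7.5 μM; TLR8 R848 15.9 μM; TLR9 ODN2006 5 nM) and SEAP measured next day, at 22 h.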

Work on `COc1cc(-c2c(C(C)C)c3nc(C4CCN(CC(F)(F)F)CC4)sc3n2CC(F)(F)F)cn2ncnc12` [Example 9, 6-isopropyl-5-(8-methoxy-[1,2,4]triazolo[1,5-a]pyridin-6-yl)-4-(2,2,2-trifluoroethyl)-2-(1-(2,2,2-trifluoroethyl)piperidin-4-yl)-4H-pyrrolo[3,2-d]thiazole] yielded an IC50 (human TLR8) of over 3130 nM and an IC50 (human TLR7) of over 3130 nM.

Work on `Cc1c(-c2[nH]c3sc(C4CCC(NCC(=O)N5CCOCC5)CC4)nc3c2C(C)C)cn2ncnc2c1C` (single isomer, unassigned) [Example 207, 2-((4-(5-(7,8-dimethyl-[1,2,4]triazolo[1,5-a]pyridin-6-yl)-6-isopropyl-4H-pyrrolo[3,2-d]thiazol-2-yl)cyclohexyl)amino)-1-morpholinoethan-1-one] yielded an IC50 (human TLR8) of 0.31 nM, an IC50 (human TLR9) of 20700 nM and an IC50 (human TLR7) of 2.92 nM.

`Cc1c(-c2[nH]c3sc(N4CCNC[C@H]4C)nc3c2C(C)C)cn2ncnc2c1C` [Example 308, (R)-5-(7,8-dimethyl-[1,2,4]triazolo[1,5-a]pyridin-6-yl)-6-isopropyl-2-(2-methylpiperazin-1-yl)-4H-pyrrolo[3,2-d]thiazole, HCl] showed an IC50 (human TLR8) of 0.09 nM, an IC50 (human TLR9) of 15800 nM and an IC50 (human TLR7) of 0.18 nM.

`Cc1cc(-c2[nH]c3sc(N4CCN(C5CCC5)C[C@H]4C)nc3c2C(C)C)cn2ncnc12` [Example 362, (R)-2-(4-cyclobutyl-2-methylpiperazin-1-yl)-6-isopropyl-5-(8-methyl-[1,2,4]triazolo[1,5-a]pyridin-6-yl)-4H-pyrrolo[3,2-d]thiazole] gave an IC50 (human TLR8) of over 3130 nM and an IC50 (human TLR7) of over 3130 nM.

In the case of `Cc1c(-c2[nH]c3sc(C4CCC(NCC(=O)N5CCOCC5)CC4)nc3c2C(C)C)cn2ncnc2c1C` (single isomer, unassigned) [Example 206, 2-((4-(5-(7,8-dimethyl-[1,2,4]triazolo[1,5-a]pyridin-6-yl)-6-isopropyl-4H-pyrrolo[3,2-d]thiazol-2-yl)cyclohexyl)amino)-1-morpholinoethan-1-one], the IC50 (human TLR8) is reported as 0.64 nM, the IC50 (human TLR9) is reported as 12600 nM and the IC50 (human TLR7) is reported as 2.27 nM.
